Ends that are not written are not given here.
How the values were obtained:
[1] = Mode of peptide-membrane interaction gauged by ITC; format: physicochemical; conditions: 20 mM POPC∶POPG (3∶1) LUVs (8 mM for OAMPX) injected 38×1 µL into 100 µM peptide, 37°C, triplicates
Experimental: (§1) Lipid stock solutions of POPC and POPG were prepared in chloroform∶methanol (9∶1). Mixtures of POPC∶POPG (3∶1) were prepared and the organic solvent was evaporated under a gentle stream of nitrogen. The lipid films were kept in vacuum (P<0.1 Pa) overnight in order to remove the residual solvent. Buffer containing 10 mM HEPES and 100 mM sodium chloride (pH 7.4) was added to the lipid films, and they were hydrated for 60 min followed by extrusion through 100 nm using an Avanti mini-extruder. Dynamic Light Scattering (DLS, Brookhaven Instrument Corporation, ZetaPALS) was used for measuring the liposome size distribution. The effective lipid concentration was determined by inductively coupled plasma atomic emission spectroscopy (ICP-AES Vista AX, Varian).
The nature of the peptides' membrane interaction was studied as a function of lipid/peptide ratio (L/P) by ITC (iTC200, Microcal). All experiments were conducted by injection of 20 mM LUVs into 100 µM peptide solution. For OAMPX, 8 mM LUVs were used. The experiments were conducted as 38×1 µL injections, T = 37°C, and the speed of the stirrer was 1000 rpms. All titrations were conducted in triplicates.

[2] = Peptide partitioning by ITC; format: physicochemical; conditions: 37°C
Experimental: as §1
The partitioning of AMPs onto lipid membranes was investigated by isothermal titration calorimetry (ITC, iTC200, Microcal, 204 µL cell volume). For the peptide analogues MPX, Ala1 and Ala14, 10 mM […] (3∶1) LUVs were injected (19×2 µL) into a 20 µM peptide solution at T = 37°C. The speed of the stirrer was 1000 rpms, and all titration were initiated with a 0.5 µL pre-injection. The heat-traces were integrated using custom made software, and the heat of partitioning was analysed using a partitioning isotherm based on Gouy-Chapman-Stern description of the electrostatic interaction of the peptide and membrane, [32]. The effective charge of the peptide (zeff), the partitioning coefficient of insertion (Kins), the molar enthalpy of partitioning ( [drawing 4] ), and the heat of dilution (qdil) were extracted as fitting parameters. The effective partitioning coefficient was derived as [drawing 5] where F is Faradays constant, [drawing 6] is the electrostatic potential evaluated at the interface of a fully charged membrane (25mol% negative charge before insertion of the first peptide), and R is the ideal gas constant. The instrument was electrically calibrated, and blank titration of LUVs into buffer was performed to ensure that heat of dilution could be modelled as a constant in the data analysis. Each titration was conducted in triplicates.

[3] = test system: Escherichia coli, strain INV-α; test: Determination of minimal inhibitory concentration (MIC); format: cell-based; conditions: LB medium, 37°C, 20 h, shaking, peptide 0.05–50 µM, absorbance 570 nm, triplicates
Experimental: (§2) A stock dilution series with ten points, ranging from 1 µM to 1 mM, was prepared in sterile PBS from freshly dissolved peptides. The dilution series was dispensed in triplicates in 96-deepwell microtiter plates (VWR Denmark, Herlev, Denmark), with 15 µl in each well. Multidispensing with electronic pipettes (Biohit, Tåstrup, Denmark) was used throughout. Lactococcus lactis, strain MG1363 (ATCC, LGC Standards AB, Boras, Sweden) and Escherichia coli, strain INV-α (Invitrogen, Nærum, Denmark) were grown in M9 (Sigma Aldrich, Brøndby, Denmark) and LB medium (Difco, BD Biosciences, Brøndby Denmark), respectively. A single colony was grown overnight at 30°C and 37°C for L.lactis and E.coli respectively. The next day, a fresh culture was started with a twenty-fold dilution of the cells and grown for exactly 60 min (optical density was approximately 0.4 at 570 nm). The cell culture was diluted (300 fold for L.lactis and 1000 fold for E.coli) before adding 150 µl to microtiter plates already containing 15 µl peptide solution and 135 µl fresh medium. […] Plates with L.lactis were sealed with lid and parafilm, and plates with E.coli were sealed with a gas-permeable tape (VWR Denmark, Herlev, Denmark). The plates were incubated at the respective temperatures for 20 hours with shaking (150 rpm). For each measurement, 100 µl of the cell culture was transferred to clear, flat-bottomed microtiter plates, and the absorbance at 570 nm was determined using a Victor3 plate reader (Perkin Elmer, Skovlunde, Denmark). The measurement was conducted in triplicates.

[4] = test system: Lactococcus lactis, strain MG1363; test: as above; format: cell-based; conditions: strain MG1363, M9 medium, 30°C, 20 h, shaking; peptide 0.05–50 µM; absorbance 570 nm; triplicates
Experimental: as §2

[5] = Pyrene-cmc assay (micelle/aggregate formation); format: physicochemical
Experimental: Fluorescence excitation spectra were collected using an Olis modernized SLM8000 fluorescence spectrophotometer equipped with single-grating emission and double-grating excitation monochromator. The fluorometer was equipped with photon counter detectors. Pyrene was used to probe micellation as it is sensitive to environment hydrophobicity. Peptides were incubated in concentrations of 0.1–1000 µM in 10 mM HEPES, 100 mM sodium chloride, pH 7.4 buffer containing 75 nM pyrene. Samples were incubated for 2 h at 60°C followed by incubation overnight at room temperature and kept in the dark until measured. Measurements were carried out at 37°C. Excitation spectra were collected using emission wavelength 390 nm and 16 nm emission slit sizes. Excitation spectra were scanned in range 310–350 nm with excitation slits sizes of 0.5 nm. The excitation spectrum shift denotes the formation of micelles/aggregates (hydrophobic cavity), which is gauged by intensity ratio R = I339/I333 [29],[30]. The plot of R versus the detergent/peptide concentration, c, measures the partitioning of pyrene into the formed micelles/aggregates. The intensity ratio is fitted using the sigmoidal function [drawing 1] , where R0 and ΔR denote the initial and change in intensity ratio, respectively. α and ci denote the normalized slope and peptide concentration at which curve inflection occurs, respectively. […]

[6] = obtained via tryptophan fluorescence measurements; cited from earlier work

INWKGIAAMAKKLL-NH2 [MPX, mastoparan X, reference compound]
endpoint of the reversible (secondary) process, lipid/peptide ratio L/P [1]: ~21
effective charge (zeff) of the peptide ([2]; 10 mM POPC∶POPG (3∶1) 100 nm LUVs injected (19×2 µL) into 20 µM peptide, pH 7.4, Gouy-Chapman-Stern fit, triplicates): 2.5±0.1
partition coefficient of insertion Kins/10^5 ([2]; 10 mM POPC∶POPG (3∶1) LUVs into 20 µM peptide, pH 7.4, Gouy-Chapman-Stern fit, value is Kins divided by 10^5, triplicates): 4.2±0.2
molar enthalpy of partitioning ([2]; 10 mM POPC∶POPG (3∶1) LUVs into 20 µM peptide, pH 7.4, triplicates): -5.74 ± 0.072 kcal/mol
effective partition coefficient Keff/10^8 ([2]; derived from Kins, zeff and the surface potential of fully charged membrane (25 mol% negative charge), value is Keff divided by 10^8): 1.6±0.2
MIC (E. coli) [3]: 8 ± 3 µM
MIC (L. lactis) [4]: 2.5 ± 0.5 µM
Critical micelle concentration (cmc) ([5]; pyrene (75 nM) fluorescence excitation shift I339/I333, 10 mM HEPES, 100 mM NaCl, pH 7.4, peptide 0.1–1000 µM, 2 h 60°C then overnight RT, measured at 37°C, cmc = onset of sigmoid, triplicates): >1000 µM
cmc ([5]; pyrene assay, no shift in pyrene excitation spectrum in covered concentration range, pH 7.4, 37°C): > 1 mM
effective charge (previous result) [6]: 1.7

— publication PMC3951324, “Side Chain Hydrophobicity Modulates Therapeutic Activity and Membrane Selectivity of Antimicrobial Peptide Mastoparan-X” (PLoS ONE, 2014)
